This is an account of results in patent publication US11013726B2 (Arbutus Biopharma Corporation, priority 2016, dated 2021).

The test system of the assay is HBsAg. In words: HBsAg assay. Format: cell-based, hepatitis B virus. Conditions: Hepatitis B virus, HepG2.2.15, 144 h, read-out: sAg EC50, μM, HepG2.2.15 cells, day 6. The method in brief: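 HepG2.2.15 cells were treated with serially diluted compounds (0.5% DMSO), with medium and compound renewed after 2-3 days. Secreted HBsAg measured at day 6 by chemiluminescence immunoassay; EC50 from dose-response curves. Viability assessed in parallel by CellTiter-Glo.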
Turning to `COCCCOc1cc2c(nc1Cl)-c1cc(=O)c(C(=O)O)cn1C1C(CCC1(C)C)O2` (centres unmarked) [Example 81, 6-Chloro-7-(3-methoxypropoxy)-12,12-dimethyl-3-oxo-9a,11,12,12a-tetrahydro-3H,10H-cyclopenta[b]dipyrido[1,2-d:2′,3′-f][1,4]oxazepine-2-carboxylic acid], the EC50 was determined as 0.011 µM.

Regarding `CC(C)C1Cc2sccc2-c2cc(=O)c(C(=O)O)cn21` (centres unmarked) [Example 84, 5-Isopropyl-9-oxo-4,9-dihydro-5H-thieno[3,2-a]quinolizine-8-carboxylic acid], the EC50 was 3.2 µM.

Consider `CC(C)C1Cc2sc(Cl)cc2-c2cc(=O)c(C(=O)O)cn21` (centres unmarked) [Example 85, 2-Chloro-5-isopropyl-9-oxo-4,9-dihydro-5H-thieno[3,2-a]quinolizine-8-carboxylic acid], for which the half-maximal effective concentration (EC50) was determined as 16 µM.

`COc1cc2c(cn1)-c1cc(=O)c(C(=O)O)cn1C(C(C)C)C2` (centres unmarked) [Example 86, 6-isopropyl-3-methoxy-10-oxo-5,10-dihydro-6H-pyrido[2,1-a][2,7]naphthyridine-9-carboxylic acid]: the concentration for a half-maximal effect (EC50) was 1 µM.

Regarding `COc1nc2c(s1)CC(C(C)C)n1cc(C(=O)O)c(=O)cc1-2` (centres unmarked) [Example 87, 5-Isopropyl-2-methoxy-9-oxo-4,9-dihydro-5H-thiazolo[4,5-a]quinolizine-8-carboxylic acid], the concentration for a half-maximal effect (EC50) is 3.8 µM.

As for `COCc1nc2c(s1)CC(C(C)C)n1cc(C(=O)O)c(=O)cc1-2` (centres unmarked) [Example 88, 5-Isopropyl-2-(methoxymethyl)-9-oxo-4,9-dihydro-5H-thiazolo[4,5-a]quinolizine-8-carboxylic acid], the EC50 amounted to 3.1 µM.

Regarding `CC(C)(C)C1Cc2cc3c(cc2-c2cc(=O)c(C(=O)O)cn21)OCCCO3` (centres unmarked) [Example 90, 6-(Tert-butyl)-2-oxo-6,7,11,12-tetrahydro-2H,10H-[1,4]dioxepino[2,3-g]pyrido[2,1-a]isoquinoline-3-carboxylic acid], the EC50 was 0.095 µM.

As to `CC(C)(C)C1Cc2cc3c(cc2-c2cc(=O)c(C(=O)O)cn21)OCC1(COC1)CO3` (centres unmarked) [Example 93, 6′-(Tert-butyl)-2′-oxo-6′,7′-dihydro-2′H,10′H,12′H-spiro[oxetane-3,11′-[1,4]dioxepino[2,3-g]pyrido[2,1-a]isoquinoline]-3′-carboxylic acid], the EC50 is 0.42 µM.

For the molecule `COCC1COc2cc3c(cc2OC1)-c1cc(=O)c(C(=O)O)cn1C(C(C)(C)C)C3` (centres unmarked) [Example 96, 6-(Tert-butyl)-11-(methoxymethyl)-2-oxo-6,7,11,12-tetrahydro-2H,10H-[1,4]dioxepino[2,3-g]pyrido[2,1-a]isoquinoline-3-carboxylic acid], the EC50 amounted to 0.14 µM.

For the molecule `COCCOC1COc2cc3c(cc2OC1)-c1cc(=O)c(C(=O)O)cn1C(C(C)(C)C)C3` (centres unmarked) [Example 97, 6-(Tert-butyl)-11-(2-methoxyethoxy)-2-oxo-6,7,11,12-tetrahydro-2H,10H-[1,4]dioxepino[2,3-g]pyrido[2,1-a]isoquinoline-3-carboxylic acid], the EC50 worked out at 1.4 µM.

`C=C1COc2cc3c(cc2OC1)-c1cc(=O)c(C(=O)O)cn1C(C(C)(C)C)C3` (centres unmarked) [Example 98, 6-(Tert-butyl)-11-methylene-2-oxo-6,7,11,12-tetrahydro-2H,10H-[1,4]dioxepino[2,3-g]pyrido[2,1-a]isoquinoline-3-carboxylic acid]: the EC50 was determined as 0.1 µM.

`COCC1(COC)COc2cc3c(cc2OC1)-c1cc(=O)c(C(=O)O)cn1C(C(C)(C)C)C3` (centres unmarked) [Example 99, 6-(Tert-butyl)-11,11-bis(methoxymethyl)-2-oxo-6,7,11,12-tetrahydro-2H,10H-[1,4]dioxepino[2,3-g]pyrido[2,1-a]isoquinoline-3-carboxylic]: the EC50 is 0.49 µM.

As to `Cc1c2n(cc(C(=O)O)c1=O)C(C(C)(C)C)Cc1cc3c(cc1-2)OCCCO3` (centres unmarked) [Example 100, 6-(Tert-butyl)-1-methyl-2-oxo-6,7,11,12-tetrahydro-2H,10H-[1,4]dioxepino[2,3-g]pyrido[2,1-a]isoquinoline-3-carboxylic acid], the EC50 came out at 10 µM.

Regarding `C=C1COc2cc3c(cc2OC1)-c1cc(=O)c(CO)cn1C(C(C)(C)C)C3` (centres unmarked) [Example 101, 6-(Tert-butyl)-3-(hydroxymethyl)-1-methylene-6,7,11,12-tetrahydro-2H,10H-[1,4]dioxepino[2,3-g]pyrido[2,1-a]isoquinolin-2-one], the EC50 is 5.8 µM.

`COC1COc2cc3c(cc2OC1)-c1cc(=O)c(C(=O)O)cn1C(C(C)(C)C)C3` (centres unmarked) [Example 102, 6-(Tert-butyl)-11-methoxy-2-oxo-6,7,11,12-tetrahydro-2H,10H-[1,4]dioxepino[2,3-g]pyrido[2,1-a]isoquinoline-3-carboxylic acid]: the EC50 was 0.18 µM.

For `CC(C)(C)C1Cc2cc3c(cc2-c2cc(=O)c(C(=O)O)cn21)OCC(O)CO3` (centres unmarked) [Example 103, 6-(Tert-butyl)-11-hydroxy-2-oxo-6,7,11,12-tetrahydro-2H,10H-[1,4]dioxepino[2,3-g]pyrido[2,1-a]isoquinoline-3-carboxylic acid], the EC50 turned out to be 0.05 µM.

With `COc1nc2c(cc1Cl)-c1cc(=O)c(C(=O)O)cn1C(C(C)C)CO2` (centres unmarked) [Example 104, 2-Chloro-7-isopropyl-3-methoxy-11-oxo-6,7-dihydro-11H-dipyrido[1,2-d:3′,2′-f][1,4]oxazepine-10-carboxylic acid], the EC50 was 24.2 µM.

In the case of `CCOP(=O)(OCC)c1cn2c(cc1=O)-c1cc(Cl)c(OCCCOC)cc1CC2C(C)(C)C` (centres unmarked) [Example 105, Diethyl (6-(tert-butyl)-10-chloro-9-(3-methoxypropoxy)-2-oxo-6,7-dihydro-2H-pyrido[2,1-a]isoquinolin-3-yl)phosphonate], the EC50 was determined as 6.1 µM.

As for `CCOP(=O)(O)c1cn2c(cc1=O)-c1cc(Cl)c(OCCCOC)cc1CC2C(C)(C)C` (centres unmarked) [Example 106, Ethyl hydrogen (6-(tert-butyl)-10-chloro-9-(3-methoxypropoxy)-2-oxo-6,7-dihydro-2H-pyrido[2,1-a]isoquinolin-3-yl)phosphonate], the EC50 is 7.2 µM.

As to `COCCCOc1cc2c(cc1Cl)-c1cc(=O)c(P(=O)(O)O)cn1C(C(C)(C)C)C2` (centres unmarked) [Example 107, (6-(Tert-butyl)-10-chloro-9-(3-methoxypropoxy)-2-oxo-6,7-dihydro-2H-pyrido[2,1-a]isoquinolin-3-yl)phosphonic acid], the EC50 was found to be 2.5 µM.

As for `COCCCOc1cc2c(nc1OC)-c1cc(=O)c(-c3nnc(C)s3)cn1[C@H](C(C)C)C2` [Example 108, (S)-6-Isopropyl-2-methoxy-3-(3-methoxypropoxy)-9-(5-methyl-1,3,4-thiadiazol-2-yl)-5,6-dihydro-10H-pyrido[1,2-h][1,7]naphthyridin-10-one], the EC50 amounted to 0.045 µM.

Consider `COCCCOc1cc2c(nc1OC)-c1cc(=O)c(-c3n[nH]c(=S)[nH]3)cn1[C@H](C(C)C)C2` [Example 109, (S)-6-Isopropyl-2-methoxy-3-(3-methoxypropoxy)-9-(5-thioxo-4,5-dihydro-1H-1,2,4-triazol-3-yl)-5,6-dihydro-10H-pyrido[1,2-h][1,7]naphthyridin-10-one], for which the 50% effective concentration (EC50) was determined as 0.029 µM.

For `COCCCOc1cc2c(nc1OC)-c1cc(=O)c(-c3nnco3)cn1[C@H](C(C)C)C2` [Example 110, (S)-6-Isopropyl-2-methoxy-3-(3-methoxypropoxy)-9-(1,3,4-oxadiazol-2-yl)-5,6-dihydro-10-pyrido[1,2-h][1,7]naphthyridin-10-one], the EC50 came to 0.057 µM.

One may read the EC50 as the midpoint of the concentration-response curve.
